Entries after “also recorded” stand apart in the source; their conditions may differ. Bridge positions count the residues as written; N and C are the ends. Square brackets hold non-standard residues; d marks the D form. Peptide text beside a SMILES is read from it. * marks the point of attachment. X1 = CC[C@H](C)CCCCC(=O)*; Dab = NCC[C@H](N)C(=O)O
Tests used:
[1] = test system: wt-OMVs; experiment: TEM / cryo-EM of treated OMVs; design: species or system E. coli; details: ~0.5:1 compound to LPS
Experimental: OMVs were incubated in OMV buffer (as above) plus 0.0005% tween-80 and then polymyxin B, PMBN, or an equal volume of OMV buffer, added for a final ratio of 0.5:1 polymyxin B (or PMBN) to LPS for either 1 min or 40 min. The amount of LPS in the OMV preparations was determined using fluorescently labeled LPS as described. LPS was quantified by addition of 20 µL of 4 µM dansyl-polymyxin B to 20 µL of sample or dilution series of LPS in PBS with 0.004% tween-80 and 5 mM EDTA in a while polypropylene 384-well plate (Thermo-Fisher). The plate was incubated for 30 min at room-temperature before reading the fluorescence intensity on a plate reader (Ex 340 nm, Em 495 nm, cutoff 475 nm). Concentration was interpolated using a standard curve. Log-phase bacteria were diluted to OD600 of 0.25 in 3 mL of LB supplemented with tween-80 before addition of 1 µL of 1 µM polymyxin B or PMBN and incubated statically at 37 °C. Samples were fixed at times indicated by addition of equal volume of 2x Karnovsky fix and stored at 4 °C. The suspensions were then adsorbed to the surface of formvar and carbon-coated standard TEM grids (75 mesh) for 15 min at room temperature, quickly rinsed in ultrapure water. OMVs were stained twice for 60 s with 2% aqueous uranyl acetate and bacteria were stained with uranyl-less stain (ready-to-use solution from Electron Microscopy Sciences) twice for 60 s. Excess staining solution was blotted off and grids were air dried. Imaging was with JEOL JEM-1400 transmission electron microscope (TEM) operated at 80 kV using magnification form 5000x to 100,000x. At least 20 images were taken for each sample. […]
California USA, www.graphpad.com). […]
Wild-type and polymyxin-resistant OMVs (pmrAG53E) were incubated with polymyxin B, PMBN, or an equal volume of buffer, as described for TEM imaging at a final ratio of 0.5:1 polymyxin B (or PMBN) to LPS for 20 min. To prepare samples for cryo-EM, 4 μL of each condition was applied to holey gold grids (UltrAuFoil 25 nm R 1.2/1.3; Quantifoil) which had been glow discharged for 20 sec with a Solarus plasma cleaner (Gatan). […]

[2] = biological target: resistant-OMVs; experiment: SPR steady-state affinity of reversible binding, resistant-OMVs; design: species or system E. coli; details: no pre-saturation; n=4 (polymyxin B), n=3 (PMBN), (SD); read-out: Apparent KD
Experimental: An apparent-KD was measured for the reversible saw-tooth binding profile where polymyxin B was titrated over an OMV surface pre-saturated with the stable binding component (Supplementary Information Fig. S11B). […] No pre-saturation was necessary when using resistant-OMVs or PMBN as these lack the stable component (Fig. 2B, D–F).
Binding and kinetic analysis of SPR-OMV assays
To determine the apparent- KD of the reversible binding event of polymyxin B, single-cycle kinetics were performed as described in Materials and Methods. After OMVs were loaded, 5 µM polymyxin B was injected for 360 sec ([…] flow rate) followed by 120 sec dissociations to saturate the stable-binding population prior to the sample injections. The base-to-peak value of each trace was determined from double-referenced traces (reference 1: - OMVs/ + compound channel; reference 2: + OMVs/ - compound) exported from the Biacore S200 evaluation software into PRISM 9 software. The change in RU with each pulse was plotted over the concentration and the KD determined by fitting a non-linear regression, one-site total function with background parameter set to 0 (GraphPad Prism version 9.3.1 for Mac, GraphPad Software, San Diego, California USA, www.graphpad.com). […]

CC(C)C[C@@H]1NC(=O)[C@@H](Cc2ccccc2)NC(=O)[C@H](CCN)NC(=O)[C@@H](NC(=O)[C@H](CCN)NC(=O)[C@@H](N)[C@@H](C)O)CCNC(=O)[C@H]([C@@H](C)O)NC(=O)[C@H](CCN)NC(=O)[C@H](CCN)NC1=O [PMBN] (H-T[Dab][Dab][Dab][dF]L[Dab][Dab]T; lactam 3-C)
effect on OMV morphology (words) [1]: less or no OMV clumping was observed | Kd [2]: 371 nM

CC[C@H](C)CCCCC(=O)N[C@@H](CCN)C(=O)N[C@H](C(=O)N[C@@H](CCN)C(=O)N[C@H]1CCNC(=O)[C@H]([C@@H](C)O)NC(=O)[C@H](CCN)NC(=O)[C@H](CCN)NC(=O)[C@H](CC(C)C)NC(=O)[C@@H](Cc2ccccc2)NC(=O)[C@H](CCN)NC1=O)[C@@H](C)O [Polymyxin B] (X1-[Dab]T[Dab][Dab][Dab][dF]L[Dab][Dab]T; lactam 4-C (inferred); N-terminus assumed)
effect on OMV morphology (words) [1]: led to clumping | effect on OMV morphology (words) ([1]; listed as polymyxin B): exhibited vesiculation and tubules; also recorded: OMVs are perturbed by polymyxin B | Kd [2]: 273 nM
